Test system: 521955-158-R2-J5-PDC complex spheroid viability
Assay: Anticancer human tumor 521955-158-R2-J5-PDC patient-derived pancreatic carcinoma cell line growth inhibition [GQUAD]
Details: for IC50: curve of first compound; for viability, T/C: stronger effect = lower value; active = viability on the fitted dose curve at most 10% of control; inactive = the rest
Outline: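 Multi-cell-type spheroids of tumor cells with HUVEC and mesenchymal stem cells, treated with drug combinations. Concentrations descend in half-log steps from near clinical Cmax, or from 10 microM where Cmax is unknown; viability read-out.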

[1] = second compound 0.0316 µM, first compound 0.0316 µM
[2] = second compound 0.0316 µM, first compound 0.1 µM
[3] = second compound 0.0316 µM, first compound 0.316 µM
[4] = second compound 0.0316 µM, first compound 1 µM
[5] = second compound 0.0316 µM, first compound 3.16 µM
[6] = second compound 0.0316 µM, first compound 10 µM
[7] = second compound 0.1 µM, first compound 0.0316 µM
[8] = second compound 0.1 µM, first compound 0.1 µM
[9] = second compound 0.1 µM, first compound 0.316 µM
[10] = second compound 0.1 µM, first compound 1 µM
[11] = second compound 0.1 µM, first compound 3.16 µM
[12] = second compound 0.1 µM, first compound 10 µM
[13] = second compound 0.316 µM, first compound 0.0316 µM
[14] = second compound 0.316 µM, first compound 0.1 µM
[15] = second compound 0.316 µM, first compound 0.316 µM
[16] = second compound 0.316 µM, first compound 1 µM
[17] = second compound 0.316 µM, first compound 3.16 µM
[18] = second compound 0.316 µM, first compound 10 µM
[19] = second compound 1 µM, first compound 0.0316 µM
[20] = second compound 1 µM, first compound 0.1 µM
[21] = second compound 1 µM, first compound 0.316 µM
[22] = second compound 1 µM, first compound 1 µM
[23] = second compound 1 µM, first compound 3.16 µM
[24] = second compound 1 µM, first compound 10 µM
[25] = second compound 3.16 µM, first compound 0.0316 µM
[26] = second compound 3.16 µM, first compound 0.1 µM
[27] = second compound 3.16 µM, first compound 0.316 µM
[28] = second compound 3.16 µM, first compound 1 µM
[29] = second compound 3.16 µM, first compound 3.16 µM
[30] = second compound 3.16 µM, first compound 10 µM
[31] = second compound 10 µM, first compound 0.0316 µM
[32] = second compound 10 µM, first compound 0.1 µM
[33] = second compound 10 µM, first compound 0.316 µM
[34] = second compound 10 µM, first compound 1 µM
[35] = second compound 10 µM, first compound 3.16 µM
[36] = second compound 10 µM, first compound 10 µM
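Note: spheroids exposed to agents for one week before reading.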
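Throughout, for viability, T/C: 100% = DMSO vehicle control viability.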

COc1cc(C2c3cc4c(cc3C(OC3OC5COC(C)OC5C(O)C3O)C3COC(=O)C23)OCO4)cc(OC)c1O (stereo unspecified) + Cc1[nH]c2ccc(F)cc2c1-c1nc2c3cccnc3c3ncccc3c2[nH]1
inactive: viability, T/C [1] 99.5% | viability, T/C [2] 72.6% | viability, T/C [3] 73% | viability, T/C [4] 41% | viability, T/C [5] 14% | viability, T/C [7] 81% | viability, T/C [8] 102% | viability, T/C [9] 70.6% | viability, T/C [10] 29.8% | viability, T/C [11] 15.1% | viability, T/C [12] 10.7% | viability, T/C [13] 104% | viability, T/C [14] 94.9% | viability, T/C [15] 76.3% | viability, T/C [16] 34% | viability, T/C [17] 18.7% | viability, T/C [19] 84.2% | viability, T/C [20] 114% | viability, T/C [21] 82.2% | viability, T/C [22] 27.6% | viability, T/C [23] 15.4% | viability, T/C [24] 9.36% | viability, T/C [25] 74.8% | viability, T/C [26] 100% | viability, T/C [27] 73.1% | viability, T/C [28] 35.6% | viability, T/C [29] 14.7% | viability, T/C [30] 11.6% | viability, T/C [31] 96.3% | viability, T/C [32] 94% | viability, T/C [33] 66.8% | viability, T/C [34] 31.9% | viability, T/C [35] 17.1% | viability, T/C [36] 12.4%
628 nM: IC50 (second compound 1 µM)
645 nM: IC50 (second compound 0.0316 µM)
576 nM: IC50 (second compound 0.1 µM)
active: viability, T/C [6] 9.66% | viability, T/C [18] 7.53%
653 nM: IC50 (second compound 3.16 µM)
661 nM: IC50 (second compound 0.316 µM)
556 nM: IC50 (second compound 10 µM)

Cc1cccc(N(C)C(=O)C2C(O)CCN2c2nc(C)cc(C(F)(F)F)c2C#N)c1 (stereo unspecified) + Cc1[nH]c2ccc(F)cc2c1-c1nc2c3cccnc3c3ncccc3c2[nH]1
inactive: viability, T/C [1] 111% | viability, T/C [2] 85.8% | viability, T/C [3] 110% | viability, T/C [4] 107% | viability, T/C [5] 110% | viability, T/C [6] 123% | viability, T/C [7] 92.2% | viability, T/C [8] 109% | viability, T/C [9] 94.7% | viability, T/C [10] 106% | viability, T/C [11] 126% | viability, T/C [12] 120% | viability, T/C [13] 91.1% | viability, T/C [14] 93.5% | viability, T/C [15] 101% | viability, T/C [16] 114% | viability, T/C [17] 112% | viability, T/C [18] 111% | viability, T/C [19] 92.7% | viability, T/C [20] 100% | viability, T/C [21] 108% | viability, T/C [22] 105% | viability, T/C [23] 128% | viability, T/C [24] 115% | viability, T/C [25] 110% | viability, T/C [26] 88.2% | viability, T/C [27] 92.5% | viability, T/C [28] 91.8% | viability, T/C [29] 132% | viability, T/C [30] 120% | viability, T/C [31] 115% | viability, T/C [32] 104% | viability, T/C [33] 104% | viability, T/C [34] 122% | viability, T/C [35] 126% | viability, T/C [36] 113%
> 10000 nM: IC50 (second compound 0.0316 µM) | IC50 (second compound 0.1 µM) | IC50 (second compound 0.316 µM) | IC50 (second compound 1 µM) | IC50 (second compound 3.16 µM) | IC50 (second compound 10 µM)

O=C(c1cc(Cc2n[nH]c(=O)c3ccccc23)ccc1F)N1CCN(C(=O)C2CC2)CC1 + Cc1cnc(CNC(=O)c2c(=O)c3ccc(N4CCCN(C)CC4)nc3n3c2sc2ccccc23)cn1
> 10000 nM: IC50 (second compound 0.0316 µM)
2860 nM: IC50 (second compound 0.1 µM)
inactive: viability, T/C [1] 83.5% | viability, T/C [2] 56% | viability, T/C [3] 77.1% | viability, T/C [4] 64.4% | viability, T/C [5] 75.4% | viability, T/C [6] 59.7% | viability, T/C [7] 60.3% | viability, T/C [8] 63.5% | viability, T/C [9] 59.7% | viability, T/C [10] 52.9% | viability, T/C [11] 51.8% | viability, T/C [12] 32.5% | viability, T/C [13] 35.1% | viability, T/C [14] 50% | viability, T/C [15] 37.9% | viability, T/C [16] 36.9% | viability, T/C [17] 30.8% | viability, T/C [18] 24.1% | viability, T/C [19] 18% | viability, T/C [20] 19.9% | viability, T/C [21] 22.8% | viability, T/C [22] 23.9% | viability, T/C [23] 21.1% | viability, T/C [24] 16.1% | viability, T/C [25] 16.6% | viability, T/C [26] 19.6% | viability, T/C [27] 21.1% | viability, T/C [28] 15.9% | viability, T/C [29] 16.5% | viability, T/C [30] 13.9% | viability, T/C [31] 21.2% | viability, T/C [32] 18.9% | viability, T/C [33] 18.1% | viability, T/C [34] 18.2% | viability, T/C [35] 16.7% | viability, T/C [36] 12.1%
< 31.6 nM: IC50 (second compound 0.316 µM) | IC50 (second compound 1 µM) | IC50 (second compound 3.16 µM) | IC50 (second compound 10 µM)

— PubChem BioAssay AID2060495 (Molecular Pharmacology Branch, DTP, NCI, 2025)
